In US20090275574A1, “NOVEL COMPOUNDS-300” (ASTRAZENECA AB, priority 2008, published 2009):

Legend:
cloned human M2 receptor = molecular target: T1, cloned human M2 receptor (Homo sapiens, UniProt P08172); assay: hM2 receptor GTPγS binding; format: biochemical; details: CHO membranes expressing hM2, [35S]GTPγS binding
T1 construct: purchased Perkin-Elmer RBHM2M; host or cells: Chinese hamster ovary cells (CHO), membranes
T1 sequence (P08172 1-466): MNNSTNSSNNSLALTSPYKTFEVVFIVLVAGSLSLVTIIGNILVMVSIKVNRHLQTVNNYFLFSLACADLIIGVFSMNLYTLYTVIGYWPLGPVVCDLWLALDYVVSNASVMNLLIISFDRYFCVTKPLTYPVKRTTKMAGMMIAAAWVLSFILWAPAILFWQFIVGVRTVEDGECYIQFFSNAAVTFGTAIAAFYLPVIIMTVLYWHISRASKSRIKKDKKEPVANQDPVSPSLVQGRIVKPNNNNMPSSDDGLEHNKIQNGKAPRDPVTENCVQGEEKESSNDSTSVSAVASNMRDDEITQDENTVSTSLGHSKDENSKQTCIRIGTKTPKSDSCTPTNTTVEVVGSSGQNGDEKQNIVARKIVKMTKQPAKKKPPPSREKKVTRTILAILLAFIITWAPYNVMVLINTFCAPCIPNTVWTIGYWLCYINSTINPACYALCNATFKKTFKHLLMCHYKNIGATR
Method: hM2 Receptor GTPγS Binding Membranes produced from Chinese hamster ovary cells (CHO) expressing the cloned human M2 receptor (human Muscarinic receptor subtype 2, gene bank access NM_000739), are obtained from Perkin-Elmer (RBHM2M). The membranes are thawed at 37° C., passed 3 times through a 23-gauge blunt-end needle, diluted in the GTPγS binding buffer (50 mM Hepes, 20 mM NaOH, 100 mM NaCl, 1 mM EDTA, 5 mM MgCl2, pH 7.4, 100 μM DTT). The EC50, IC50 and Emax of the compounds of the invention are evaluated from 10-point dose-response curves (three fold concentration range) done in 60 μl in 384-well non-specific binding surface plate (Corning). Ten microliters from the dose-response curves plate (5× concentration) are transferred to another 384 well plate containing 25 μl of the following: 5 μg of hM2 membranes, 500 μg of Flashblue beads (Perkin-Elmer) and GDP 25 μM. An additional 15 μl containing 3.3× (60,000 dpm) of GTPγ^35S (0.4 nM final) are added to the wells resulting in a total well volume of 50 μl. Basal and maximal stimulated [^35S]GTPγS binding are determined in absence and presence of 30 μM final of acetylcholine agonist. The membranes/beads mix are pre-incubated for 15 minutes at room temperature with 25 μM GDP prior to distribution in plates (12.5 μM final). The reversal of acetylcholine-induced stimulation (2 μM final) of [^35S]GTPγS binding is used to assay the antagonist properties (IC50) of the compounds. The plates are incubated for 60 minutes at room temperature then centrifuged at 400 rpm for 5 minutes. The radioactivity (cpm) is counted in a Trilux (Perkin-Elmer). Values of EC50, IC50 and Emax are obtained using sigmoidal fits of a non-linear curve-fitting program (XLfit version 4.2.2 Excel add-in version 4.2.2 build 18 math 1Q version 2.1.2 build 18) of percent stimulated [^35S]GTPγS binding vs. log(molar ligand). All pEC50 and pIC50 values are reported as arithmetic means±standard error of mean of ‘n’ independent experiments.

[1] = molecular target: T2, hM3 (human Muscarinic receptor subtype 3) (Homo sapiens, UniProt P20309); assay: Human M3 calcium mobilization FLIPR assay; format: cell-based; details: hM3 expressed in CHO cells, intracellular Ca2+ release (FLIPR)
T2 construct: expressed in transfected cells; host or cells: CHO cells (ATCC)
Method: Human M1, rat M1, Human M3 and Human M5 Calcium Mobilization FLIPR™ Assay The compound activity in the present invention (EC50 or IC50) is measured using a 384 plate-based imaging assay that monitors drug induced intracellular Ca^2+ release in whole cells. Activation of hM1 (human Muscarinic receptor subtype 1, gene bank access NM_000738), rM1 (rat Muscarinic receptor subtype 1, gene bank access NM_080773), hM3 (human Muscarinic receptor subtype 3, gene bank access NM_000740NM_000740) and hM5 (human Muscarinic receptor subtype 5, gene bank access NM_0121258), receptors expressed in CHO cells (Chinese hamster ovary cells, ATCC) is quantified in a Molecular Devices FLIPR IITM instrument as an increase in fluorescent signal. Inhibition of hM3 and hM5 by compounds is determined by the decrease in fluorescent signal in response to 2 nM acetylcholine activation. […] Prior to experiment, the cell culture medium is removed from the plates by inversion. […] Plates are incubated at 37° C. for 60 minutes prior to start the experiment. The incubation is terminated by washing the cells four times in assay buffer, leaving a residual 25 μl buffer per well. Cell plates are then transferred to the FLIPR, ready for compound additions. The day of experiment, acetylcholine and compounds are diluted in assay buffer in three-fold concentration range (10 points serial dilution) for addition by FLIPR instrument. For all calcium assays, a baseline reading is taken for 10 seconds followed by the addition of 12.5 μl of compounds, resulting in a total well volume of 37.5 μl. Data is collected every second for 60 pictures and then every 6 seconds for 20 pictures prior to the addition of agonist. For hM3 and hM5, before agonist addition, a second baseline reading is taken for 10 seconds followed by the addition of 12.5 μl of agonist or buffer, producing a final volume of 50 μl. After agonist stimulation, the FLIPR continues to collect data every second for 60 pictures and then every 6 seconds for 20 pictures. The fluorescence emission is read using filter 1 (emission 510-570 nm) by the FLIPR on board CCD camera. Calcium mobilization output data are calculated as the maximal relative fluorescence unit (RFU) minus the minimal value for both compound and agonist reading frame (except for hM1 and rM1 using only the maximal RFU). Data are analyzed using sigmoidal fits of a non-linear curve-fitting program (XLfit version 4.2.2 Excel add-in version 4.2.2 build 18 math 1Q version 2.1.2 build 18). All pEC50 and pIC50 values are reported as arithmetic means±standard error of mean of ‘n’ independent experiments.

T2 sequence (P20309 whole entry): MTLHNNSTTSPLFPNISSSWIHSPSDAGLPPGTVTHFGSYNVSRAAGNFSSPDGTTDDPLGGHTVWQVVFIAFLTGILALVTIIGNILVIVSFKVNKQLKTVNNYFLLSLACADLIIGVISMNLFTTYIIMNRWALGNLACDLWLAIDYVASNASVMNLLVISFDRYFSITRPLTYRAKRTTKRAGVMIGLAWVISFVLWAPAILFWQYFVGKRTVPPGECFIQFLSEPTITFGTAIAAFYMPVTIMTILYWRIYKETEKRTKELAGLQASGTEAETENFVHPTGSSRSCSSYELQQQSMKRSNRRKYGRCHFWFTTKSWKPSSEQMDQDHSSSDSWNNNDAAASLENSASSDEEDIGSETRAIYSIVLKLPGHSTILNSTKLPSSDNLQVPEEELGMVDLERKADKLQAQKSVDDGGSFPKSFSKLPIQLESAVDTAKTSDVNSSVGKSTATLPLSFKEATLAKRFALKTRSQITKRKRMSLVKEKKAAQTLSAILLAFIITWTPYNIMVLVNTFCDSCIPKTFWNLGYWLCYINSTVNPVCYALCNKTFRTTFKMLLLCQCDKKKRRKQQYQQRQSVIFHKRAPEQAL

| SMILES | EC50 (cloned human M2 receptor) [µM] | EC50 [1] [µM] |
| --- | --- | --- |
| CCOCC1CCC(N2CCC(N3C(=O)NC[C@H]4CCCC[C@@H]43)CC2)CC1 (mixture of isomers) [Example 08, (4aR,8aS)-1-(1-(4-(ethoxymethyl)cyclohexyl)piperidin-4-yl)octahydroquinazolin-2(1H)-one] | 0.35 | 1.1 |
| CC(C)OCC1CCC(N2CCC(N3C(=O)CO[C@H]4CCCC[C@@H]43)CC2)CC1 (mixture of isomers) [Example 15, (4aS,8aS)-4-(1-(4-(isopropoxymethyl)cyclohexyl)piperidin-4-yl)hexahydro-2H-benzo[b][1,4]oxazin-3(4H)-one] | 3.5 | > 40 |
| CCCOCC1CCC(N2CCC(N3C(=O)NC[C@H]4CCCC[C@@H]43)CC2)CC1 (single isomer, unassigned) [Example 01] | 7.7 | > 40 |
| CCCOCC1CCC(N2CCC(N3C(=O)NC[C@H]4CCCC[C@@H]43)CC2)CC1 (single isomer, unassigned) [Example 02] | 0.24 | 1.6 |
| CC(C)OCC1CCC(N2CCC(N3C(=O)NC[C@H]4CCCC[C@@H]43)CC2)CC1 (single isomer, unassigned) [Example 04] | 0.66 | 5.1 |
| CCCOC1CCC(N2CCC(N3C(=O)NC[C@H]4CCCC[C@@H]43)CC2)CC1 (single isomer, unassigned) [Example 06] | 2.5 |  |
| CCOCC1CCC(N2CCC(N3C(=O)CO[C@H]4CCCC[C@@H]43)CC2)CC1 (single isomer, unassigned) [Example 13] | > 21 | > 40 |
| CCOCC1CCC(N2CCC(N3C(=O)CO[C@H]4CCCC[C@@H]43)CC2)CC1 (single isomer, unassigned) [Example 14] | 2.8 | > 40 |
| CCCOC1CCC(N2CCC(N3C(=O)CO[C@H]4CCCC[C@@H]43)CC2)CC1 (single isomer, unassigned) [Example 17] | > 48 |  |
| CC(C)OCC1CCC(N2CCC(N3C(=O)CO[C@H]4CCCC[C@@H]43)CC2)CC1 (single isomer, unassigned) [Example 18] | 3.5 | > 40 |
| CC(C)OCC1CCC(N2CCC(N3C(=O)CO[C@H]4CCCC[C@@H]43)CC2)CC1 (single isomer, unassigned) [Example 19] | 8.7 | > 40 |
| O=C1CO[C@H]2CCCC[C@@H]2N1C1CCN(C2CCC(COCC3CC3)CC2)CC1 (single isomer, unassigned) [Example 22] | 1 |  |
| O=C1CO[C@H]2CCCC[C@@H]2N1C1CCN(C2CCC(COCC3CC3)CC2)CC1 (single isomer, unassigned) [Example 23] | > 1.2 |  |
| O=C1CO[C@H]2CCCC[C@@H]2N1C1CCN(C2CCC(COCCF)CC2)CC1 (single isomer, unassigned) [Example 24] | > 5.7 | > 40 |
| O=C1CO[C@H]2CCCC[C@@H]2N1C1CCN(C2CCC(COCCF)CC2)CC1 (single isomer, unassigned) [Example 25] | > 2.7 | > 40 |
| O=C1CO[C@H]2CCCC[C@@H]2N1C1CCN(C2CCC(COCC(F)F)CC2)CC1 (single isomer, unassigned) [Example 26] | > 3.6 | > 40 |
| O=C1CO[C@H]2CCCC[C@@H]2N1C1CCN(C2CCC(COCC(F)F)CC2)CC1 (single isomer, unassigned) [Example 27] | 0.87 | > 40 |

More lines, now with the values ahead:

| EC50 (cloned human M2 receptor) [µM] | EC50 [1] [µM] | SMILES |
| --- | --- | --- |
| > 13 | > 40 | CC(C)OCC1CCC(N2CCC(N3C(=O)CO[C@H]4CCC(F)(F)C[C@@H]43)CC2)CC1 (single isomer, unassigned) [Example 37] |
| > 10 | > 40 | CC(C)OCC1CCC(N2CCC(N3C(=O)CO[C@H]4CCC(F)(F)C[C@@H]43)CC2)CC1 (single isomer, unassigned) [Example 38] |
| 5 | > 40 | CCOCC1CC(N2CCC(N3C(=O)CO[C@H]4CCCC[C@@H]43)CC2)C1 (single isomer, unassigned) [Example 39] |
| 4.4 |  | O=C1CO[C@H]2CCCC[C@@H]2N1C1CCN(C2CC(COCC3CCC3)C2)CC1 (single isomer, unassigned) [Example 40] |
| 1.6 | > 10 | CCOCC1CCC(N2CCC(N3C(=O)CO[C@H]4CCCC[C@@H]43)CC2)C1 (single isomer, unassigned) [Example 44] |
| 6.1 | > 40 | CCOCC1CCC(N2CCC(N3C(=O)CO[C@H]4CCCC[C@@H]43)CC2)C1 (single isomer, unassigned) [Example 45] |
| 2.2 | > 40 | O=C1COC2CCCC2N1C1CCN([C@H]2CC[C@@H](COCC3CC3)CC2)CC1 (single isomer, unassigned) [Example 48] |
| 3 | > 40 | O=C1NC[C@H]2CCCC[C@@H]2N1C1CCN(C2CCC(COCC(F)F)CC2)CC1 (single isomer, unassigned) [Example 51] |
| 1.6 | > 2.1 | CCOC[C@H]1CC[C@@H](N2CCC(N3C(=O)CO[C@H]4CCCC[C@@H]43)CC2)C1 [Example 42, (4aS,8aS)-4-(1-((1R,3S)-3-(ethoxymethyl)cyclopentyl)piperidin-4-yl)hexahydro-2H-benzo[b][1,4]oxazin-3(4H)-one] |
| > 3.9 | > 40 | CCOC[C@@H]1CC[C@H](N2CCC(N3C(=O)CO[C@H]4CCCC[C@@H]43)CC2)C1 [Example 43, (4aS,8aS)-4-(1-((1S,3R)-3-(ethoxymethyl)cyclopentyl)piperidin-4-yl)hexahydro-2H-benzo[b][1,4]oxazin-3(4H)-one] |
